Reference: patent US8415469B2, “Compounds and methods for kinase modulation, and indications therefor” (Plexxikon Inc., priority 2005, dated 2013)
Blank lines part the entries; values can stand above or below the compound they belong to.

Key:
Format in all cases: biochemical
IKK beta = biological target: T1, IKK beta (Homo sapiens, UniProt O14920); test: AlphaScreen kinase assay, IKK beta; conditions: read-out: IC50, activity toward kinase IKK beta
T1 sequence (O14920 1-756): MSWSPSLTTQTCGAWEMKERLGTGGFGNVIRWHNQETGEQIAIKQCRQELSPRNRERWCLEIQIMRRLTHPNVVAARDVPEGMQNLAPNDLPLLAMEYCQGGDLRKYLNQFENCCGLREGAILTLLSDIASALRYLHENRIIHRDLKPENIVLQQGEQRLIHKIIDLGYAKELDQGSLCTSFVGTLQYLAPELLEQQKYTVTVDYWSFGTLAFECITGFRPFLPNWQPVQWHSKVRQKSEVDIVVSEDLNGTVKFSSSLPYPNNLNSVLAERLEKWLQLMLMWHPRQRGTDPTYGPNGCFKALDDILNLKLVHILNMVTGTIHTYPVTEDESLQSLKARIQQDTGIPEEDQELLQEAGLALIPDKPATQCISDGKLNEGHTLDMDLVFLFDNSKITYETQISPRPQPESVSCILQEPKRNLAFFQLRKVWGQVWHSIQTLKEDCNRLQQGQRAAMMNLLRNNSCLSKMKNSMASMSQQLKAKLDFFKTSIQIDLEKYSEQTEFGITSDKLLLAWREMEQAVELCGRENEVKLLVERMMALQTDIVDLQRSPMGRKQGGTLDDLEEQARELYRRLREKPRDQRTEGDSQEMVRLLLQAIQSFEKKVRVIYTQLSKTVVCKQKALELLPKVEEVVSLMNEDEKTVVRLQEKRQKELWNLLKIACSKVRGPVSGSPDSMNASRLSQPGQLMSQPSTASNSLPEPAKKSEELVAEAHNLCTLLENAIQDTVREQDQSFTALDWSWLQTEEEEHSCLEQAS

Flt1 = biological target: T2, Flt1 (Homo sapiens, UniProt P17948); test: AlphaScreen kinase assay, Flt1; conditions: read-out: IC50, activity toward kinase Flt1
T2 construct: P1826.pETN6 BI-PTP FLT1 M799-D1165-X WT; His6 (N); made in house; host or cells: E. coli (PTP1B co-expressed)
T2 sequence (P17948 with tags, fused parts or gaps): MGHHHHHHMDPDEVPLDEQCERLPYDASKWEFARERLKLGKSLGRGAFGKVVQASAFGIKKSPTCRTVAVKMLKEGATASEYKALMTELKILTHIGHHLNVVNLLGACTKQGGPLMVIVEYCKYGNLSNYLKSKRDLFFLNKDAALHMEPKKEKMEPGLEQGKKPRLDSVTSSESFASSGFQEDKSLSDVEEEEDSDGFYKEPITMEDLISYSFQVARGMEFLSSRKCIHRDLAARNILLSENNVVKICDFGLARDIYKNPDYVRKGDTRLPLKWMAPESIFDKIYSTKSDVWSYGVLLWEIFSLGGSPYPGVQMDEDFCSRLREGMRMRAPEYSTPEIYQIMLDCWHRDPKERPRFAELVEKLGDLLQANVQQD

B-Raf V600E = biological target: T3, B-Raf V600E (Homo sapiens, UniProt P15056, V600E); test: AlphaScreen kinase assay, B-Raf V600E; conditions: read-out: IC50, activity toward kinase B-Raf V600E
T3 construct: P4254. pFastBacBD-CDC37 BRAF D437-K722-X, V600E; His6 with pFastBac HT leader (TEV site) (N); made in house; host or cells: Sf9 (baculovirus; chaperone CDC37 co-expressed)

Gsk3β = Gsk3β (Homo sapiens, UniProt P49841); test: AlphaScreen kinase assay, Gsk3β; conditions: read-out: IC50, activity toward kinase Gsk3β
Excerpt: AlphaScreen assay was used to screen additional kinases. The assay is similarly dependent on the phosphorylation of a peptide substrate. In this assay, an antibody that recognizes phosphorylated substrate is bound to an acceptor bead. The peptide substrate is attached to biotin, which binds to a donor head that contains streptavidin. Thus phosphorylated substrate is bound by antibody and streptavidin, bringing the donor and acceptor heads into close proximity when kinase is not inhibited. The donor produces singlet oxygen which results in emission from the acceptor when they are in close proximity. Conversely, when kinase is inhibited, the donor and acceptor beads are not associated and the emission from the acceptor is reduced.
AlphaScreen assays were done using compounds dissolved in DMSO to a concentration of 20 mM. The compounds were diluted accordingly to the desired final concentrations in each sample well, using 1:3 serial dilution for a total of 8 concentration points.

Yes = biological target: T4, Yes (Homo sapiens, UniProt P07947); test: Z'-Lyte FRET kinase assay (Invitrogen), Yes; conditions: read-out: IC50, activity toward kinase Yes
T4 construct: purchased Invitrogen (Carlsbad, Calif.), screening service
Outline: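 Inhibition was inferred from protease cleavage of non-phosphorylated peptide, measured as a coumarin/fluorescein ratio. Kinase reactions used 10 μM ATP for 1 h at room temperature.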

EphB2 = biological target: T5, EphB2 (Homo sapiens, UniProt P29323); test: Z'-Lyte FRET kinase assay (Invitrogen), EphB2; conditions: read-out: IC50, activity toward kinase EphB2
T5 construct: purchased Invitrogen (assay run by Invitrogen)
T5 sequence (P29323 19-1055): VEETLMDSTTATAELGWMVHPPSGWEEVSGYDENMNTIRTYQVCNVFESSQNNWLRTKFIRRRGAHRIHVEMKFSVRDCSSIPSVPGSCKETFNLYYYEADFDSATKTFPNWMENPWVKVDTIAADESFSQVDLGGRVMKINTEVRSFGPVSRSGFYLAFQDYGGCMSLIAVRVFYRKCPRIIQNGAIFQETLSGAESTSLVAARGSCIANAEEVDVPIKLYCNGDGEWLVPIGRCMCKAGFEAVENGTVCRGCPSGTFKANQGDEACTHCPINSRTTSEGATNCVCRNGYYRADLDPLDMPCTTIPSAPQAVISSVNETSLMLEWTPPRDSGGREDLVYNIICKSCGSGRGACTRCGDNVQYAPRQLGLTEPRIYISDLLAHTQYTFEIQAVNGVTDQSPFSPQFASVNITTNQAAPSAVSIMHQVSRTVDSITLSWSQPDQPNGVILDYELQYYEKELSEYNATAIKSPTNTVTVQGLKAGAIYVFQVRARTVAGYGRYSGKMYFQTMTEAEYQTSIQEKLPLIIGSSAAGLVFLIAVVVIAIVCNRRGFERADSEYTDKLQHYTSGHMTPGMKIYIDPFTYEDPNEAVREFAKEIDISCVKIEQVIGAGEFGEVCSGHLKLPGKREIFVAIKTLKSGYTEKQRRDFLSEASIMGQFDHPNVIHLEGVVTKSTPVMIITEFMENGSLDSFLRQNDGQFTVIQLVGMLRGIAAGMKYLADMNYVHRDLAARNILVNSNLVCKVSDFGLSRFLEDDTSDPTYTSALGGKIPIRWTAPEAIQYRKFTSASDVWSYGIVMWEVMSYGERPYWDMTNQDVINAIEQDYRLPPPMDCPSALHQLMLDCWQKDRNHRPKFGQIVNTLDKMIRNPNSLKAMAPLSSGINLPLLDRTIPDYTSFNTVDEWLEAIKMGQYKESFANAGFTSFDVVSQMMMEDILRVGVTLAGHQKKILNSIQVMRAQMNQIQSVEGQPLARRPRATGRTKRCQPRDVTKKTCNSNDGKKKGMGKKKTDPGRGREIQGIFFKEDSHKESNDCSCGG
Excerpt: The effect of potential modulators of kinase activity can be measured in a variety of different assays known in the art. For example, direct radiometric, indirect FRET or AlphaScreen assays may be used to assess the level of phosphorylation of a substrate in the presence of test compounds in order to determine the inhibitory affect of the compound on the kinase. Invitrogen (Carlsbad, Calif.) uses a FRET based assay for Btk, EGFR, EphB2, Flt3, lrak4, Kdr, MAP2K1, MAPKAPK2, PDGFRB, PKC theta, Stk6 and Yes. For these assays, compounds of the invention were screened by Invitrogen using Z′-Lyte™ kinase assay.
Briefly, the Invitrogen kinase assay involves use of a specific peptide substrate optimized for each kinase, containing a fluorophore at each end that make up the FRET pair. The peptide sensitivity to proteolytic cleavage depends on phosphorylation of the peptide. Non-phosphorylated peptide is cleaved by a protease while peptide phosphorylated by the kinase is not cleaved. Cleavage of the peptide disrupts the FRET between the donor (coumarin) and acceptor (fluorescein) fluorophores, resulting in an increase in the ratio of donor emission to acceptor emission. The emission ratio of coumarin to fluorescein is used to assess the reaction progress. The extent of phosphorylation is determined from the emission ratio, which is low when the kinase is active (phosphorylated peptide is not cleaved, FRET pair connected) or higher for inhibited kinase (non-phosphorylated peptide is cleaved, FRET pair separated). Thus, the assay involves a kinase reaction in the presence of varying concentrations of a given compound, a development reaction with site specific protease, and detection of the fluorescent emission ratio of coumarin and fluorscein. […] Reaction conditions for each kinase are determined to provide optimal reaction times, incubation temperature, kinase and ATP concentrations. Test samples are made up in 1× kinase buffer (50 mM HEPES pH 7.5, 50 mM MgCl2, 5 mM EGTA, 0.05% BRIJ-35) and compound at desired concentration prepared in DMSO such that the final DMSO is 1%. […] Typically, assay plates are prepared to 10 μl final volume per sample, adding 2.5 μl of compound at 4× the desired concentration in 4% DMSO (serial dilution of compound provides concentration curve), 5 μl of the desired kinase mixed with Z′-LYTE™ peptide substrate (2× in 2× kinase buffer, final peptide at 2 μM), and 2.5 μl of 4×ATP solution. All kinase except for MAP2K1 were at 10 μM ATP in the kinase reaction, while MAP2K1 was at 100 μM. Samples are mixed and the kinase reaction is incubated 1 hour at room temperature, after which 5 μl of development solution is added and mixed. After incubation for another 1 hour at room temperature, 5 μl of stop reagent is added to each sample and mixed. The fluorescence signals are measured to determine the emission ratio.

Btk = biological target: T6, Btk (Homo sapiens, UniProt Q06187); test: Z'-Lyte FRET kinase assay (Invitrogen), Btk; conditions: read-out: IC50, activity toward kinase Btk
T6 construct: purchased Invitrogen (assay run by Invitrogen)

Ret = biological target: T7, Ret (Homo sapiens, UniProt P07949); test: AlphaScreen kinase assay, Ret; conditions: read-out: IC50, activity toward kinase Ret
T7 construct: P1378.pET-SF BI-PTP RET H661-R1012 HIS; made in house
T7 sequence (P07949 with tags, fused parts or gaps): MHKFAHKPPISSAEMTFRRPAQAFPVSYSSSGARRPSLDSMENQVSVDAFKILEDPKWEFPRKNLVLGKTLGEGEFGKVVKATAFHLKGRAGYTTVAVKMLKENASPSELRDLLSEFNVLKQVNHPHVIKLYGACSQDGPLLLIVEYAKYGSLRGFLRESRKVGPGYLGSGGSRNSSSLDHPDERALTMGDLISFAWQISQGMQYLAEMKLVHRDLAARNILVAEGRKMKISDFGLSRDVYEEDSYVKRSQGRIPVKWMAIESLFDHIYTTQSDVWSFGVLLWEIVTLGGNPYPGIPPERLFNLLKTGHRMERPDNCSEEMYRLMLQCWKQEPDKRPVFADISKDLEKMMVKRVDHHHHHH

Kdr = biological target: T8, Kdr (Homo sapiens, UniProt P35968); test: Z'-Lyte FRET kinase assay (Invitrogen), Kdr; conditions: read-out: IC50, activity toward kinase Kdr
T8 construct: purchased Invitrogen (assay run by Invitrogen)

Kit = biological target: T9, Kit (Homo sapiens, UniProt P10721); test: AlphaScreen kinase assay, Kit; conditions: read-out: IC50, activity toward kinase Kit
T9 construct: P1332.N6 BI PTP KIT M552-K948-X COD; His6 (N); made in house; host or cells: E. coli (PTP1B co-expressed)

Stk6 = biological target: T10, Stk6 (Homo sapiens, UniProt O14965); test: Z'-Lyte FRET kinase assay (Invitrogen), Stk6; conditions: read-out: IC50, activity toward kinase Stk6
T10 construct: purchased Invitrogen (Carlsbad, Calif.), screening service
T10 sequence (O14965 1-403): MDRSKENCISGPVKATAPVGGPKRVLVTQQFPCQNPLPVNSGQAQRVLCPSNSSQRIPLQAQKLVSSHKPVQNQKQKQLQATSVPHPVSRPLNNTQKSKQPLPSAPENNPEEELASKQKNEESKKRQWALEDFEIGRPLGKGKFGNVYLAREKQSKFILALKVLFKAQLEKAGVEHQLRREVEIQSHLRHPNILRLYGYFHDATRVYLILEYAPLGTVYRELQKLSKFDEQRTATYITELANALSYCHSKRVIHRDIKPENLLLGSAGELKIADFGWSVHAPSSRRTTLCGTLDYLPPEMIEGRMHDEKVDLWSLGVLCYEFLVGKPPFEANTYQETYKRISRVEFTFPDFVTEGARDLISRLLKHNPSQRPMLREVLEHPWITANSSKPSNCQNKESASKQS

MAP2K1 = biological target: T11, MAP2K1 (Homo sapiens, UniProt Q02750); test: Z'-Lyte FRET kinase assay (Invitrogen), MAP2K1; conditions: read-out: IC50, activity toward kinase MAP2K1
T11 construct: purchased Invitrogen (assay run by Invitrogen)
T11 sequence (Q02750 whole entry): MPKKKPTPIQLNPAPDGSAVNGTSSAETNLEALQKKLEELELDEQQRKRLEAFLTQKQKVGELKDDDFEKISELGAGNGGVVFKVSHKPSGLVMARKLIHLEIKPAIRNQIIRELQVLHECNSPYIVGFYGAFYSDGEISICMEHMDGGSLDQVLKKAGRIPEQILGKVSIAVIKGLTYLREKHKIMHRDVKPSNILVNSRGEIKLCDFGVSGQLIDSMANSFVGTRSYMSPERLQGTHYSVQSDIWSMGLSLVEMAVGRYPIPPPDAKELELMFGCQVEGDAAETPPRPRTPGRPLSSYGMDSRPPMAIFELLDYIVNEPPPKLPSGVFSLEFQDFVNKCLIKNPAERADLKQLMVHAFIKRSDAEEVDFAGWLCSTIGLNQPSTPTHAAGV

T8 sequence (P35968 20-1356): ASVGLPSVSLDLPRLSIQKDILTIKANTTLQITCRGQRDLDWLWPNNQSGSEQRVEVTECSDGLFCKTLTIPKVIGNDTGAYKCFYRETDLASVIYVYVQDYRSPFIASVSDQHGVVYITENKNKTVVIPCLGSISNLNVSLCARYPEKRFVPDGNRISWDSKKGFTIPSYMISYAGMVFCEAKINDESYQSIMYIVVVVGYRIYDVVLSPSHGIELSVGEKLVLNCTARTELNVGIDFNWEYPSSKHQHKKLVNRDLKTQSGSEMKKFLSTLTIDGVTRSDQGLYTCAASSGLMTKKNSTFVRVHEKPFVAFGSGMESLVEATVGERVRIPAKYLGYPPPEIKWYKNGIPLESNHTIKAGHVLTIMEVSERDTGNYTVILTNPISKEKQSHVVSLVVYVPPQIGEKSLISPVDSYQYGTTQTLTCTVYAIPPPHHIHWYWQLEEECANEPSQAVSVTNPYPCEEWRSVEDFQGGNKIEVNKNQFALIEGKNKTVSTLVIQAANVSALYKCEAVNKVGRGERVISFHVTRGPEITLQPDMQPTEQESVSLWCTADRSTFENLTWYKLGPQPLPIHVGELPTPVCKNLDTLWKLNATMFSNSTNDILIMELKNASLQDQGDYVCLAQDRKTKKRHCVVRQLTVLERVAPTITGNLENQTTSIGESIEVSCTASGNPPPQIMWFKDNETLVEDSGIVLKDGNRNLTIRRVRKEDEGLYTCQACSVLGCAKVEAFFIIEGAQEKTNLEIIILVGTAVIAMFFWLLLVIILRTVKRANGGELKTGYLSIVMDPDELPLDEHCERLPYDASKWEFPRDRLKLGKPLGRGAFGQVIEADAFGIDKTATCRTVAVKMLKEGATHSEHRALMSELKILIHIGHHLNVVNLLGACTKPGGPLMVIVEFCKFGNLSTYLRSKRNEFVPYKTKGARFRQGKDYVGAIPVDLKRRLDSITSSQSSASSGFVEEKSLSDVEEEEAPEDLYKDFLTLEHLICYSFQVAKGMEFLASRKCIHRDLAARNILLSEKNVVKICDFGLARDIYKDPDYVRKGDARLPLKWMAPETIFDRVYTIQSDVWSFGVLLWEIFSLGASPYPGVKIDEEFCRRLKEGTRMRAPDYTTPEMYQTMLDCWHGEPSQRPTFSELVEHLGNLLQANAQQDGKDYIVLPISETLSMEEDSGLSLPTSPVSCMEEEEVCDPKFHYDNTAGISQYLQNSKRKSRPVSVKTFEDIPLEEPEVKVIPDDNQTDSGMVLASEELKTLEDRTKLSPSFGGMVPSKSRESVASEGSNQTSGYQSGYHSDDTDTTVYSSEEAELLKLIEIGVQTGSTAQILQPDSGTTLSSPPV
T6 sequence (Q06187 whole entry): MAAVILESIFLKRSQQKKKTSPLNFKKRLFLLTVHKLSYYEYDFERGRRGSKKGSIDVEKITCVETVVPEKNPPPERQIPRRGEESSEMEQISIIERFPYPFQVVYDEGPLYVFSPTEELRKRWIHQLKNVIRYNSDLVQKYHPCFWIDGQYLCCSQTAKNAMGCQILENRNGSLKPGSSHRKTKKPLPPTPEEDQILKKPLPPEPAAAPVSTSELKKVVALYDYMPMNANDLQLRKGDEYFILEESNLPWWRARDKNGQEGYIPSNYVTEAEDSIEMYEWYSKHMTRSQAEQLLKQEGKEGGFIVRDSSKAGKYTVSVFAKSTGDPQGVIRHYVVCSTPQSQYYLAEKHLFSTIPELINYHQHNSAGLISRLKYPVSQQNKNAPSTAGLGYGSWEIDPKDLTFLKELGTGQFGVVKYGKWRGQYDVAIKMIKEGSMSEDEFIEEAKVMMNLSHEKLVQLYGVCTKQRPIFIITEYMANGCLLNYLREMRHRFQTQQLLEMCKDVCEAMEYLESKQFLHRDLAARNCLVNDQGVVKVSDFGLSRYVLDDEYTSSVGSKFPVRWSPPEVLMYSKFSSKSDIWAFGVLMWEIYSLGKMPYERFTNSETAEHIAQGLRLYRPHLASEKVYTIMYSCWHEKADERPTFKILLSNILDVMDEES
T9 sequence (P10721 with tags, fused parts or gaps): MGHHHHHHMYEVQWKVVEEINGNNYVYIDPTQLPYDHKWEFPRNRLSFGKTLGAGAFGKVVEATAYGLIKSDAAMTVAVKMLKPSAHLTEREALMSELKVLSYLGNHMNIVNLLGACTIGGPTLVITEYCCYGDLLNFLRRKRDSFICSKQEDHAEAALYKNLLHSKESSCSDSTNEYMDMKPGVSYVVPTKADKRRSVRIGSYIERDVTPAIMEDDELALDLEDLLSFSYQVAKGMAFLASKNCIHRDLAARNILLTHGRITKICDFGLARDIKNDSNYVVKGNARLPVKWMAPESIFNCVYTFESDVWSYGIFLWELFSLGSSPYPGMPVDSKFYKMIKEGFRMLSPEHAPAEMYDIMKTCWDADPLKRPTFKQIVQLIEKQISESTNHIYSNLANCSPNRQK
Chain of Gsk3β (P49841 whole entry): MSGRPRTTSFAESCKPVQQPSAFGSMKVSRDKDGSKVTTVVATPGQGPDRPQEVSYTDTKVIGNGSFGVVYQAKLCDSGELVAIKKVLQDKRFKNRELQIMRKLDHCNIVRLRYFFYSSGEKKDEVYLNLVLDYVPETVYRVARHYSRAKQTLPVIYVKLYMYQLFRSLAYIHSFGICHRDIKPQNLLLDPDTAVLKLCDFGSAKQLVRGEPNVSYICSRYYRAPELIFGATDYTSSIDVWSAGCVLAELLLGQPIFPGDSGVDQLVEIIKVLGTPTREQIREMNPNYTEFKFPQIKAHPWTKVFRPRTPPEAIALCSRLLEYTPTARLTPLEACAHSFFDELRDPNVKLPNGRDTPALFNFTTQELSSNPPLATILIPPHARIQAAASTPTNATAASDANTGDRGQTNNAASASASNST
T4 sequence (P07947 whole entry): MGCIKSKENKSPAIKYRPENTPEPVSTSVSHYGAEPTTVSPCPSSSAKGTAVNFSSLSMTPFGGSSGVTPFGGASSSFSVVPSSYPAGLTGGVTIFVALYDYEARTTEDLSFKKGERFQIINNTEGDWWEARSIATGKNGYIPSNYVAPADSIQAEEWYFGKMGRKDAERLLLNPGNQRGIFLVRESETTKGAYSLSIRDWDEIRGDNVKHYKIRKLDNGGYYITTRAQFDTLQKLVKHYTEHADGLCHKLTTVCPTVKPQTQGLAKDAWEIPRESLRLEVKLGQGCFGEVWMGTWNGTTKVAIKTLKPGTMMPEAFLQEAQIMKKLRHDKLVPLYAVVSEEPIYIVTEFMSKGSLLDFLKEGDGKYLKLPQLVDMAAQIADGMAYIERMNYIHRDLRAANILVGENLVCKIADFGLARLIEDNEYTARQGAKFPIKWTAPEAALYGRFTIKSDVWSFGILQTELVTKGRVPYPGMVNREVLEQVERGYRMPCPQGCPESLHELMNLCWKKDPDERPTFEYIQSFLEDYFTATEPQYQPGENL
T3 sequence (P15056 with tags, fused parts or gaps V600E): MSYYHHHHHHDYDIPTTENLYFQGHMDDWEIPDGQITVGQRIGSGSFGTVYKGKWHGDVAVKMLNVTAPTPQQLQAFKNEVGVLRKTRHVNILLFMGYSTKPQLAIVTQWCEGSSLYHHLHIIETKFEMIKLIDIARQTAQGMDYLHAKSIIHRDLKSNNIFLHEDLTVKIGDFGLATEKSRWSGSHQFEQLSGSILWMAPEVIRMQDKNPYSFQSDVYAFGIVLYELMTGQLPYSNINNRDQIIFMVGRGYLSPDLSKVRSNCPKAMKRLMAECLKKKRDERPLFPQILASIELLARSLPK

IC50 (IKK beta): ≤ 10 µM | IC50 (Flt1): ≤ 10 µM
Structure (SMILES): c1cc(-c2ccsc2)c2cc[nH]c2n1 [Compound P-0629]

IC50 (IKK beta): ≤ 10 µM
Structure (SMILES): C[C@H]1CN(c2ccc(-c3ccnc4[nH]ccc34)cn2)CCN1 [Compound P-0410]

IC50 (B-Raf V600E): ≤ 10 µM | IC50 (Gsk3β): ≤ 10 µM | IC50 (Yes): ≤ 10 µM | IC50 (EphB2): ≤ 10 µM | IC50 (Btk): ≤ 10 µM | IC50 (Ret): ≤ 10 µM | IC50 (Kdr): ≤ 10 µM
Structure (SMILES): NC(=O)c1ccc(-c2ccnc3[nH]cc(C(=O)c4cccc(Cl)c4Cl)c23)cc1 [Compound P-0053]

IC50 (IKK beta): ≤ 10 µM
Structure (SMILES): c1ccc2oc(-c3ccnc4[nH]ccc34)cc2c1 [Compound P-0790]

IC50 (IKK beta): ≤ 10 µM | IC50 (Flt1): ≤ 10 µM | IC50 (Kit): ≤ 10 µM
Structure (SMILES): CSc1cccc(-c2c[nH]c3ncccc23)c1 [Compound P-0315]

IC50 (IKK beta): ≤ 10 µM
Structure (SMILES): COc1ccc(C#Cc2ccnc3[nH]ccc23)cc1 [Compound P-0920]

IC50 (Gsk3β): ≤ 10 µM | IC50 (Yes): ≤ 10 µM | IC50 (Stk6): ≤ 10 µM | IC50 (MAP2K1): ≤ 10 µM | IC50 (Btk): ≤ 10 µM | IC50 (Kdr): ≤ 10 µM
Structure (SMILES): O=C(CCBr)c1c[nH]c2ncccc12 [Compound P-0081]

IC50 (IKK beta): ≤ 10 µM | IC50 (Kit): ≤ 10 µM
Structure (SMILES): COc1ccc(-c2c[nH]c3ncccc23)cc1F [Compound P-0690]

IC50 (IKK beta): ≤ 10 µM
Structure (SMILES): CCS(=O)(=O)c1ccc(-c2c(C)[nH]c3ncccc23)cc1 [Compound P-1223]
